Experimental data taken from patent US8017828B2, “Utilization of rare sugars in plant or microorganism” (Shikoku Research Institute Incorporated, priority 2004, dated 2011).

Columns and labels:
[1] = test system: Brassica rapa var. amplexicaulis (variety: “Haru Ichiban”); assay: Foliar spraying of sugar on Brassica rapa var. amplexicaulis; type: in vivo; details: 0.5% solution sprayed; for Terminal bud weight: control (water) 3.0; for Stem diameter: control (water) 22.8; for Number of lateral buds: control (water) 32.3; for Plant length: control (water) 49.3; for Total weight of lateral buds: control (water) 235.3
Text: Brassica rapa var. amplexicaulis is a vegetable in the Brassica family, and flower buds are harvested and used. As the same species of vegetables, broccoli, cauliflower and the like are exemplified, which are important horticultural crops. As for such a vegetable, development of flower buds has a large effect on the crop yield. Therefore, during the house cultivation of Brassica rapa var. amplexicaulis (variety: “Haru Ichiban”), foliar spraying of a sugar solution at a concentration of 0.5% (w/v) was carried out and effects on the growth and the development of flower buds were examined. The seeds of Brassica rapa var. amplexicaulis were sown in a 128-cell tray on Oct. 23, 2003 and raised for about 20 days. Then, the raised seedlings were transplanted for permanent planting with a planting distance of 40 cm on two rows with an inter row space of 50 cm in separate beds filled with soil for cultivation “Hana to Yasai no Tsuchi (garden soil for flowers and vegetables)” (Kurokawa Shubyo En) on Nov. 12, 2003. The cultivation was carried out by a simple fertigation system, and irrigation was carried out for 1 hour on a daily basis with a 2,000-fold dilution of Hyponex through an irrigation tube. The cultivation was carried out in a vinyl house without heating with side windows open. From Dec. 18, 2003, water or a 0.5% (w/v) sugar solution was sprayed onto the whole plant on a three times weekly basis. As for the types of sugars, D-glucose, D-fructose and D-psicose were used and five plants were cultivated for each test plot. On Feb. 23, 2004, three plants of medium size were harvested and a survey was carried out. The survey items were plant length, stem diameter, number of lateral buds, terminal bud weight, total weight of lateral buds and the like.

[2] = test system: rice plant (variety: “Hinohikari”); assay: Foliar spraying of sugar on pot-grown rice; type: in vivo
Description: After seeds of a rice plant (variety: “Hinohikari”) were put in a nylon net and subjected to sterilization and a germination induction treatment in a growth chamber at 30° C. for 2 days while they were soaked in 0.1% (w/v) Benlate (Hokko Chemical Industry Co., Ltd.) in accordance with a common method, they were sown in a nursery tray filled with “Kumiai Ryujou Baido SD” (Kureha Chemical Industry Co., Ltd.) and raised in a phytotron (day temperature: 25° C. and night temperature: 18° C.) for about 2 weeks. Then, Wagner pots with a size of 1/5,000a were filled with “Kumiai Ryujou Baido SD” (Kureha Chemical Industry Co., Ltd.) and the raised rice seedlings were transplanted for permanent planting to the pots and the cultivation was started on Jul. 2, 2003 in the open air under the condition that the soil was covered with water in the pots. From Jul. 16, 2003, when the seedlings were confirmed to take root, water, a 0.02% (w/v) sugar solution, a 0.1% (w/v) sugar solution or a 0.5% (w/v) sugar solution was sprayed onto the whole plant on a three times weekly basis. As for the types of sugars, D-glucose, D-fructose and D-psicose were used and three pots were cultivated for each test plot. The cultivation was continued in such a manner that the water in pots was not dried up and after 5 g of Magamp K medium (HYPONeX JAPAN CORP., Ltd.) per pot was added as additional fertilization on Aug. 29, 2003, and the harvest and survey were carried out on Sep. 22, 2003. The survey items were plant length, number of tillers, leaf weight, husk weight, underground part weight and the like.

[3] = test system: Pythium ultimum IFO 32426 strain; assay: Oospore formation of Pythium ultimum in sugar solution; type: cell-based; details: 0.05% (w/v) sugar solution, 23° C., 4 days
Description: With regard to Pythium ultimum that causes damping-off of spinach and the like, an effect of a rare sugar on oospore formation was examined.
First, as the Pythium ultimum, IFO 32426 strain was used, and static culture thereof was carried out with 200 ml of V8 medium at 23° C. for 1 week. The resulting mycelial mat was well washed with sterile water and divided into 16 equal parts with forceps. This mycerial body was disentangled uniformly to form a small piece and immersed in 20 ml of a sugar solution at a concentration of 0.05% (w/v) and let stand at 23° C. for 4 days. […] Further, the same experiment was carried out using Pythium zingiberum IFO 30817 strain.

Phalaenopsis orchid = assay: Growth of Phalaenopsis orchid flask seedlings in tissue culture; type: in vivo; details: 0.005% in MS medium; for Underground part weight: non 2.9; for Aerial part weight: non 4.7; for Number of roots: non 12.5
Description: Flask seedlings of Phalaenopsis orchid and Cymbidium obtained by tissue culture were used in an experiment.
As for Phalaenopsis orchid, MS medium supplemented with D-psicose, D-glucose or D-fructose at a concentration of 0.005% (w/v) was used, and the flask seedlings were aseptically transplanted on Sep. 6, 2004. As for the number of seedlings, 4 seedlings were used for 1 test plot, and glass bottles with a capacity of 500 ml and having a hole with a diameter of about 1 cm for preventing dew condensation made in the upper region was used as culture containers. The cultivation was carried out in a culture chamber at 25° C. and 5,000 Lux (12-hour day length) Then, on Jan. 24, 2005, a survey was carried out with regard to the growth conditions of aerial part and underground part and the number of roots. The results are shown in Table 8 (effect of addition of D-psicose on the growth of seedlings of Phalaenopsis orchid).

Row | Compound | Terminal bud weight [1] [g] | Stem diameter [1] [mm] | Number of lateral buds [1] | Plant length [1] [cm] | Total weight of lateral buds [1] [g] | Dry husk weight ([2]; 0.02% sugar solution sprayed) [g] | Dry leaf weight ([2]; 0.02% sugar solution sprayed) [g] | Number of tillers ([2]; 0.02% sugar solution sprayed) | Plant length ([2]; 0.02% sugar solution sprayed) [cm] | Dry husk weight ([2]; 0.10% sugar solution sprayed) [g] | Dry leaf weight ([2]; 0.10% sugar solution sprayed) [g] | Number of tillers ([2]; 0.10% sugar solution sprayed) | Plant length ([2]; 0.10% sugar solution sprayed) [cm] | Dry husk weight ([2]; 0.50% sugar solution sprayed) [g] | Dry leaf weight ([2]; 0.50% sugar solution sprayed) [g] | Number of tillers ([2]; 0.50% sugar solution sprayed) | Plant length ([2]; 0.50% sugar solution sprayed) [cm] | oospore formation [3] | Underground part weight (Phalaenopsis orchid) [g] | Aerial part weight (Phalaenopsis orchid) [g] | also measured
1 | O=C[C@H](O)[C@@H](O)[C@H](O)[C@H](O)CO [D-glucose, reference compound] | 5.7 | 20.6 | 32.0 | 56.3 | 198.1 | 17.2 | 34.0 | 29.3 | 74.0 | 17.6 | 35.5 | 30.0 | 75.5 | 17.9 | 37.3 | 31.3 | 74.8 | no effect | 3.7 | 5.1 | Number of roots (Phalaenopsis orchid): 12.3 roots
2 | O=C(CO)[C@H](O)[C@H](O)[C@H](O)CO [D-psicose] | 8.8 | 26.9 | 43.0 | 61.2 | 225.0 | 16.8 | 36.3 | 33.7 | 73.2 | 14.7 | 31.8 | 33.5 | 76.3 | 10.2 | 27.9 | 50.0 | 71.3 | inhibited | 4.1 | 6.1 | Number of roots (Phalaenopsis orchid): 16.0 roots
3 | O=C(CO)[C@@H](O)[C@H](O)[C@H](O)CO [D-fructose, reference compound] | 7.4 | 19.9 | 41.3 | 55.8 | 231.1 | 16.8 | 43.3 | 29.3 | 85.7 | 16.1 | 41.0 | 29.3 | 84.3 | 17.2 | 36.4 | 27.0 | 85.7 | no effect | 4.0 | 5.7 | Number of roots (Phalaenopsis orchid): 14.8 roots
4 | O=C[C@H](O)[C@H](O)[C@H](O)[C@H](O)CO [D-allose] | 7.9 | 23.6 | 38.0 | 60.7 | 222.5 | – | – | – | – | – | – | – | – | – | – | – | – | not observed at all | – | – | –
